Laboratory results as given in PMC7756341, “Liposomal FRET Assay Identifies Potent Drug‐Like Inhibitors of the Ceramide Transport Protein (CERT)” (Chemistry (Weinheim an Der Bergstrasse, Germany), 2020).
“And” between values parts separate entries of the source, which are not always exact repeats. Identical values can stand only once.

Experiments:
HeLa cells [1] = assay: Sphingolipid content of treated HeLa cells by quantitative mass spectrometry; type: cell-based; settings: for Cer16 / Cer18 / Cer20 / Cer22 / Cer24 / Cer24:1 / Cer total / S1P / SM16 / SM18 / SM20 / SM22 / SM24 / SM24:1 / SM total / Sph / ratio total SM/Cer: HeLa, 42h, single replicates; for Cer16 / Cer18 / Cer20 / Cer22 / Cer24 / Cer24:1 / Cer total / S1P / SM16 / SM18 / SM20 / SM22 / SM24 / SM24:1 / SM total / Sph: 500.000 cells per sample
Protocol: 5.2 Cellular experiment for lipidomic analysis
Hela cells were cultured in six well plates (177000 cells per well) under standard growth conditions (DMEM with 4mM L-glutamine, 10% FBS, 1% Penicillin-Streptomycin; CO2 incubator with […]
37°C, 5% CO2). […]
After incubation, […]
the adherent cells were washed twice with ice-cold PBS and harvested by treatment with trypsin.
Cells were counted using a Countess II cell counter ( Invitrogen) and adjusted to 500.000 cells per sample. Each sample was then treated as described below.
6. Details for experimental lipidomics
Cells were subjected to lipid extraction using 1.5 mL methanol/chloroform (2:1, v:v) as described. The extraction solvent contained C17-ceramide (Cer17) and C16 -d31-sphingomyelin (d31-SM16) (both Avanti Polar Lipids, Alabaster, USA) as internal standards. Chromatographic separations were achieved on a 1260 Infinity HPLC (Agilent Technologies, Waldbronn, Germany) equipped with a Poroshell 120 EC-C8 column (3.0 × 150 mm, 2.7 µm; Agilent Technologies). A mobile phase system consisting of water (solvent A) and acetonitrile/methanol (1:1, v:v; solvent B), both acidified with 0.1% formic acid, was used for gradient elution at an initial composition of 40:60 (A:B, v:v) and a flow rate of 0.5 mL/min. MS/MS analyses were carried out using a 6490 triple-quadrupole mass spectrometer (Agilent Technologies) operating in the positive electrospray ionization mode (ESI+). The following ion source parameters were set: sheath gas temperature, 375 °C; sheath gas flow, 12 L/min of nitrogen; nebulizer pressure, 30 psi; drying gas temperature, 200 °C; drying gas flow, 15 L/min of nitrogen; capillary voltage, 4000 V; nozzle voltage, 1500 V; iFunnel high pressure RF voltage, 150 V and iFunnel low pressure RF voltage, 60 V. The following mass transitions were recorded (collision energies of 25 eV for all transitions): ceramides: m/z […]
with MassHunter Software (Agilent Technologies). Significance of differences between two samples was calculated by student’s t -test. Asterisks indicate significant differences between treated and untreated samples: * p<0.05; ** p<0.01; *** p<0.005.
Table S1. Sphingolipid content of treated cells.
(§1) (1 picture or pasted object on this page, not shown here)

HeLa cells [2] = assay: Cellular localization of BODIPY-ceramide by confocal microscopy; type: cell-based; settings: 10 µM inhibitor, 2 h
Protocol: 5.1 Cellular Localization of BODIPY-Ceramide
HeLa cells were seeded in 8 well chamber slides (ibidi µ-Slide 8 Well) in RPMI 1640 medium supplemented with 10% (v/v) heat‐inactivated FCS, 1 mM sodium pyruvate and 2 mM L-glutamine at 37 °C and 5% (v/v) CO2 in a humidified incubator. The day after, cells were incubated with inhibitors for 2 h at a concentration of 10 µM or left untreated by replacing the medium with fresh medium supplemented with the respective inhibitors. After 2 h of incubation, BODIPY FL C5-ceramide (Thermo Fisher) was added to a final concentration of 0,25 µM and imaging was immediately done using an LSM 780 laser scanning confocal microscope (Carl Zeiss). No additional wash steps were performed. After 1 h of incubation, DNA was counterstained using Hoechst 33342. For quantification of BODIPY-Ceramide trafficking, cells were transfected with pECFP-GalT the day before inhibitor incubation for the expression of an eCFP fusion of the human galactosyltransferase (GalT; amino acids 1-60), which localizes at the Golgi apparatus. After incubation with the respective inhibitors (see above), cells were imaged at 30 min post addition of BODIPY FL C5-ceramide. Mean BODIPY intensities of regions of interest surrounding eCFP-GalT-positive Golgi stacks were measured (40 cells per biological replicate, 4 biological replicates in total) using ImageJ software (Rasband, W.S., ImageJ, U. S. National Institutes of Health, Bethesda, Maryland, USA, https://imagej.nih.gov/ij/, 1997-2018) and divided by the total BODIPY intensity detected in the field of view. Quantification (Fig 10B) is expressed as normalized intensity ratio (GA/total).
Figure S10. A Uptake of BODIPY FL C5-ceramide to HeLa cells assessed by normalized fluorescence intensity B Distribution of BODIPY FL C5-ceramide by normalized fluorescence […]
as §1
Figure S11. BODIPY-Ceramide trafficking. Confocal images showing distribution of BODIPY FL C5-ceramide (green) and Golgi apparatus costaining (eCFP-GalT; blue) in HeLa cells pretreated with 10 µM of respective inhibitors or left untreated. Figures show representative images (n = 4 biological replicates with 40 cells per biological replicate); scale bars, 10 µm.

Compound: CCCC(=O)OCOC(=O)C1=C(C)NC(C)=C(C(=O)OC)C1c1cccc(Cl)c1Cl (stereo not drawn) [6B11, Clevidipine butyrate]
- effect on SM/Cer rate (HeLa cells [1]; HeLa cells): dramatically increased
- effect on total sphingomyelin (HeLa cells [1]; HeLa cells, 48 hours, serum-reduced medium): no significant changes
- Cer16 (HeLa cells [1]; 1 µM): 35,47 pmol/sample and 30,33 pmol/sample and 32,28 pmol/sample
- Cer18 (HeLa cells [1]; 1 µM): 3,21 pmol/sample and 3,62 pmol/sample and 2,31 pmol/sample
- Cer20 (HeLa cells [1]; 1 µM): 0,82 pmol/sample and 1,87 pmol/sample and 0,75 pmol/sample
- Cer22 (HeLa cells [1]; 1 µM): 6,64 pmol/sample and 6,96 pmol/sample and 5,21 pmol/sample
- Cer24 (HeLa cells [1]; 1 µM): 21,95 pmol/sample and 20,24 pmol/sample and 18,20 pmol/sample
- Cer24:1 (HeLa cells [1]; 1 µM): 41,58 pmol/sample and 36,60 pmol/sample and 35,42 pmol/sample
- Cer total (HeLa cells [1]; 1 µM): 109,68 pmol/sample and 101,56 pmol/sample and 92,23 pmol/sample
- S1P (HeLa cells [1]; 1 µM): 1,30 pmol/sample (2×) and 1,12 pmol/sample
- SM16 (HeLa cells [1]; 1 µM): 1664,57 pmol/sample and 1753,19 pmol/sample and 1827,88 pmol/sample
- SM18 (HeLa cells [1]; 1 µM): 49,35 pmol/sample and 48,17 pmol/sample and 50,13 pmol/sample
- SM20 (HeLa cells [1]; 1 µM): 16,44 pmol/sample and 17,01 pmol/sample and 16,12 pmol/sample
- SM22 (HeLa cells [1]; 1 µM): 97,77 pmol/sample and 109,23 pmol/sample and 104,57 pmol/sample
- SM24 (HeLa cells [1]; 1 µM): 148,40 pmol/sample and 164,36 pmol/sample and 157,65 pmol/sample
- SM24:1 (HeLa cells [1]; 1 µM): 734,55 pmol/sample and 781,78 pmol/sample and 776,18 pmol/sample
- SM total (HeLa cells [1]; 1 µM): 2711,09 pmol/sample and 2873,72 pmol/sample and 2932,53 pmol/sample
- Sph (HeLa cells [1]; 1 µM): 2,93 pmol/sample and 3,14 pmol/sample and 2,69 pmol/sample
- ratio total SM/Cer (HeLa cells [1]; 1 µM): 29,4 and 26,2 and 28,9
- Cer16 (HeLa cells [1]; 2.5 µM): 31,11 pmol/sample and 34,56 pmol/sample and 32,33 pmol/sample
- Cer18 (HeLa cells [1]; 2.5 µM): 2,90 pmol/sample and 3,36 pmol/sample and 2,45 pmol/sample
- Cer20 (HeLa cells [1]; 2.5 µM): 1,10 pmol/sample and 1,04 pmol/sample and 0,67 pmol/sample
- Cer22 (HeLa cells [1]; 2.5 µM): 6,09 pmol/sample and 6,54 pmol/sample and 4,24 pmol/sample
- Cer24 (HeLa cells [1]; 2.5 µM): 19,85 pmol/sample and 19,17 pmol/sample and 13,13 pmol/sample
- Cer24:1 (HeLa cells [1]; 2.5 µM): 35,16 pmol/sample and 36,98 pmol/sample and 34,53 pmol/sample
- Cer total (HeLa cells [1]; 2.5 µM): 96,21 pmol/sample and 101,65 pmol/sample and 87,36 pmol/sample
- S1P (HeLa cells [1]; 2.5 µM): 1,11 pmol/sample (2×) and 1,10 pmol/sample
- SM16 (HeLa cells [1]; 2.5 µM): 1754,78 pmol/sample and 1844,30 pmol/sample and 1802,54 pmol/sample
- SM18 (HeLa cells [1]; 2.5 µM): 52,01 pmol/sample and 48,63 pmol/sample and 47,35 pmol/sample
- SM20 (HeLa cells [1]; 2.5 µM): 16,63 pmol/sample and 16,52 pmol/sample and 14,33 pmol/sample
- SM22 (HeLa cells [1]; 2.5 µM): 104,73 pmol/sample and 101,64 pmol/sample and 87,68 pmol/sample
- SM24 (HeLa cells [1]; 2.5 µM): 164,67 pmol/sample and 154,96 pmol/sample and 126,92 pmol/sample
- SM24:1 (HeLa cells [1]; 2.5 µM): 701,62 pmol/sample and 752,78 pmol/sample and 753,00 pmol/sample
- SM total (HeLa cells [1]; 2.5 µM): 2780,44 pmol/sample and 2845,61 pmol/sample and 2919,05 pmol/sample
- Sph (HeLa cells [1]; 2.5 µM): 3,54 pmol/sample and 2,83 pmol/sample and 2,99 pmol/sample
- ratio total SM/Cer (HeLa cells [1]; 2.5 µM): 31,8 and 29,6 and 28,7
- Cer16 (HeLa cells [1]; 5 µM): 29,66 pmol/sample and 34,26 pmol/sample and 31,66 pmol/sample
- Cer18 (HeLa cells [1]; 5 µM): 2,65 pmol/sample and 3,21 pmol/sample and 2,71 pmol/sample
- Cer20 (HeLa cells [1]; 5 µM): 0,74 pmol/sample and 0,90 pmol/sample and 0,79 pmol/sample
- Cer22 (HeLa cells [1]; 5 µM): 5,38 pmol/sample and 6,67 pmol/sample and 6,09 pmol/sample
- Cer24 (HeLa cells [1]; 5 µM): 17,46 pmol/sample and 20,37 pmol/sample and 20,18 pmol/sample
- Cer24:1 (HeLa cells [1]; 5 µM): 36,92 pmol/sample and 40,53 pmol/sample and 39,54 pmol/sample
- Cer total (HeLa cells [1]; 5 µM): 92,81 pmol/sample and 105,93 pmol/sample and 100,96 pmol/sample
- S1P (HeLa cells [1]; 5 µM): 1,11 pmol/sample and 1,25 pmol/sample and 1,08 pmol/sample
- SM16 (HeLa cells [1]; 5 µM): 1762,30 pmol/sample and 1782,59 pmol/sample and 1722,69 pmol/sample
- SM18 (HeLa cells [1]; 5 µM): 53,21 pmol/sample and 52,89 pmol/sample and 50,26 pmol/sample
- SM20 (HeLa cells [1]; 5 µM): 17,74 pmol/sample and 18,28 pmol/sample and 16,92 pmol/sample
- SM22 (HeLa cells [1]; 5 µM): 109,54 pmol/sample and 111,84 pmol/sample and 106,91 pmol/sample
- SM24 (HeLa cells [1]; 5 µM): 166,35 pmol/sample and 172,87 pmol/sample and 164,46 pmol/sample
- SM24:1 (HeLa cells [1]; 5 µM): 783,66 pmol/sample and 796,71 pmol/sample and 771,15 pmol/sample
- SM total (HeLa cells [1]; 5 µM): 2892,80 pmol/sample and 2935,19 pmol/sample and 2832,39 pmol/sample
- Sph (HeLa cells [1]; 5 µM): 2,83 pmol/sample and 2,13 pmol/sample and 3,03 pmol/sample
- ratio total SM/Cer (HeLa cells [1]; 5 µM): 31,2 and 27,7 and 28,1
- effect on intracellular distribution of BODIPY-Cer (HeLa cells [2]): only minor effects
